From ChEMBL document CHEMBL5120927, “LEGO-Lipophosphonoxins: A Novel Approach in Designing Membrane Targeting Antimicrobials” (J Med Chem, 2022)

test system: not listed separately; assay: Gradient chromatographic hydrophobicity index of the compound at pH 3.7 by HPLC analysis; type: ADME; settings: not given

Going from `CCCCC/C=C\CCCOP(=O)(CCN(CCCN)CCCN)OCCCOP(=O)(CCN(CCCN)CCCN)OCCC/C=C\CCCCC.Cl.Cl.Cl.Cl.Cl.Cl` (stereo unspecified) to `Cl.Cl.Cl.Cl.Cl.Cl.NCCCN(CCCN)CCP(=O)(OCCCCCCCCCCCCOP(=O)(CCN(CCCN)CCCN)OCCc1ccccc1)OCCc1ccccc1` (stereo unspecified), the CHI falls from 39.8 to 34.8.

test system: Staphylococcus aureus; assay: Antibacterial activity against Staphylococcus aureus ATCC 29213 = CCM 4223 assessed as inhibition of bacterial growth incubated for 24 hrs in presence of BSA by microdilution assay; type: functional; settings: not given

`CCCCC/C=C\CCCOP(=O)(CCN(CCCN)CCCN)OCCCOP(=O)(CCN(CCCN)CCCN)OCCC/C=C\CCCCC.Cl.Cl.Cl.Cl.Cl.Cl` (stereo unspecified) and `Cl.Cl.Cl.Cl.Cl.Cl.NCCCN(CCCN)CCP(=O)(OCCCCCCCCCCCCOP(=O)(CCN(CCCN)CCCN)OCCc1ccccc1)OCCc1ccccc1` (stereo unspecified) are the same in MIC: 2 µg/mL for the first, 2 µg/mL for the second.

test system: Enterococcus faecium; assay: Antibacterial activity against vancomycin resistant Enterococcus faecium 419/ANA assessed as reduction in microbial growth incubated for 24 hrs by microdilution assay; type: functional; settings: not given

Compared with `CCCCC/C=C\CCCOP(=O)(CCN(CCCN)CCCN)OCCCOP(=O)(CCN(CCCN)CCCN)OCCC/C=C\CCCCC.Cl.Cl.Cl.Cl.Cl.Cl` (stereo unspecified), `Cl.Cl.Cl.Cl.Cl.Cl.NCCCN(CCCN)CCP(=O)(OCCCCCCCCCCCCOP(=O)(CCN(CCCN)CCCN)OCCc1ccccc1)OCCc1ccccc1` (stereo unspecified) is 4-fold higher in MIC: 8 µg/mL for the first, 32 µg/mL for the second.

test system: Pseudomonas aeruginosa; assay: Antibacterial activity against multidrug-resistant Pseudomonas aeruginosa assessed as reduction in microbial growth incubated for 24 hrs by microdilution assay; type: functional; settings: not given

Compared with `CCCCC/C=C\CCCOP(=O)(CCN(CCCN)CCCN)OCCCOP(=O)(CCN(CCCN)CCCN)OCCC/C=C\CCCCC.Cl.Cl.Cl.Cl.Cl.Cl` (stereo unspecified), `Cl.Cl.Cl.Cl.Cl.Cl.NCCCN(CCCN)CCP(=O)(OCCCCCCCCCCCCOP(=O)(CCN(CCCN)CCCN)OCCc1ccccc1)OCCc1ccccc1` (stereo unspecified) is 4-fold higher in MIC: 2 µg/mL for the first, 8 µg/mL for the second.

test system: Escherichia coli; assay: Antibacterial activity against Escherichia coli ATCC 25922 = CCM 3954 assessed as inhibition of bacterial growth incubated for 24 hrs in presence of BSA by microdilution assay; type: functional; settings: not given

First: CCCCC/C=C\CCCOP(=O)(CCN(CCCN)CCCN)OCCCOP(=O)(CCN(CCCN)CCCN)OCCC/C=C\CCCCC.Cl.Cl.Cl.Cl.Cl.Cl (stereo unspecified)
Second: Cl.Cl.Cl.Cl.Cl.Cl.NCCCN(CCCN)CCP(=O)(OCCCCCCCCCCCCOP(=O)(CCN(CCCN)CCCN)OCCc1ccccc1)OCCc1ccccc1 (stereo unspecified)
The MIC of the first is 4-fold lower: 2 µg/mL for the first, 8 µg/mL for the second.

test system: Enterococcus faecalis; assay: Antibacterial activity against Enterococcus faecalis ATCC 29212 = CCM 4224 assessed as inhibition of bacterial growth incubated for 24 hrs by microdilution assay; type: functional; settings: not given

First: CCCCC/C=C\CCCOP(=O)(CCN(CCCN)CCCN)OCCCOP(=O)(CCN(CCCN)CCCN)OCCC/C=C\CCCCC.Cl.Cl.Cl.Cl.Cl.Cl (stereo unspecified)
Second: Cl.Cl.Cl.Cl.Cl.Cl.NCCCN(CCCN)CCP(=O)(OCCCCCCCCCCCCOP(=O)(CCN(CCCN)CCCN)OCCc1ccccc1)OCCc1ccccc1 (stereo unspecified)
The MIC of the first is 2-fold lower: 2 µg/mL for the first, 4 µg/mL for the second.

test system: Staphylococcus epidermidis; assay: Antibacterial activity against Staphylococcus epidermidis CCM 7221 assessed as inhibition of bacterial growth incubated for 24 hrs by microdilution assay; type: functional; settings: not given

First: CCCCC/C=C\CCCOP(=O)(CCN(CCCN)CCCN)OCCCOP(=O)(CCN(CCCN)CCCN)OCCC/C=C\CCCCC.Cl.Cl.Cl.Cl.Cl.Cl (stereo unspecified)
Second: Cl.Cl.Cl.Cl.Cl.Cl.NCCCN(CCCN)CCP(=O)(OCCCCCCCCCCCCOP(=O)(CCN(CCCN)CCCN)OCCc1ccccc1)OCCc1ccccc1 (stereo unspecified)
The MIC of the first is 2-fold higher: 1 µg/mL for the first, 0.5 µg/mL for the second.

test system: Staphylococcus aureus; assay: Antibacterial activity against Staphylococcus aureus ATCC 29213 = CCM 4223 assessed as inhibition of bacterial growth incubated for 24 hrs by microdilution assay; type: functional; settings: not given

`CCCCC/C=C\CCCOP(=O)(CCN(CCCN)CCCN)OCCCOP(=O)(CCN(CCCN)CCCN)OCCC/C=C\CCCCC.Cl.Cl.Cl.Cl.Cl.Cl` (stereo unspecified) and `Cl.Cl.Cl.Cl.Cl.Cl.NCCCN(CCCN)CCP(=O)(OCCCCCCCCCCCCOP(=O)(CCN(CCCN)CCCN)OCCc1ccccc1)OCCc1ccccc1` (stereo unspecified) are the same in MIC: 1 µg/mL for the first, 1 µg/mL for the second.

test system: Escherichia coli; assay: Antibacterial activity against multidrug-resistant Escherichia coli CE5556 expressing CTX-M-15 assessed as reduction in microbial growth incubated for 24 hrs by microdilution assay; type: functional; settings: not given

Compared with `CCCCC/C=C\CCCOP(=O)(CCN(CCCN)CCCN)OCCCOP(=O)(CCN(CCCN)CCCN)OCCC/C=C\CCCCC.Cl.Cl.Cl.Cl.Cl.Cl` (stereo unspecified), `Cl.Cl.Cl.Cl.Cl.Cl.NCCCN(CCCN)CCP(=O)(OCCCCCCCCCCCCOP(=O)(CCN(CCCN)CCCN)OCCc1ccccc1)OCCc1ccccc1` (stereo unspecified) is 16-fold higher in MIC: 1 µg/mL for the first, 16 µg/mL for the second.

test system: not listed separately; assay: Hemolytic activity in human RBC assessed as haemoglobin release measured after 3 hr; type: toxicity, cell-based, Erythrocyte; settings: red blood cells (erythrocytes)

`CCCCC/C=C\CCCOP(=O)(CCN(CCCN)CCCN)OCCCOP(=O)(CCN(CCCN)CCCN)OCCC/C=C\CCCCC.Cl.Cl.Cl.Cl.Cl.Cl` (stereo unspecified) and `Cl.Cl.Cl.Cl.Cl.Cl.NCCCN(CCCN)CCP(=O)(OCCCCCCCCCCCCOP(=O)(CCN(CCCN)CCCN)OCCc1ccccc1)OCCc1ccccc1` (stereo unspecified) are within 1.5-fold of each other in HC50 at 3 h: 271 µg/mL for the first, 358 µg/mL for the second.

test system: Escherichia coli; assay: Antibacterial activity against Escherichia coli ATCC 25922 = CCM 3954 assessed as inhibition of bacterial growth incubated for 24 hrs by microdilution assay; type: functional; settings: not given

Going from `CCCCC/C=C\CCCOP(=O)(CCN(CCCN)CCCN)OCCCOP(=O)(CCN(CCCN)CCCN)OCCC/C=C\CCCCC.Cl.Cl.Cl.Cl.Cl.Cl` (stereo unspecified) to `Cl.Cl.Cl.Cl.Cl.Cl.NCCCN(CCCN)CCP(=O)(OCCCCCCCCCCCCOP(=O)(CCN(CCCN)CCCN)OCCc1ccccc1)OCCc1ccccc1` (stereo unspecified), the MIC rises from 1 µg/mL to 4 µg/mL (4-fold).

test system: Staphylococcus aureus; assay: Antibacterial activity against methicillin resistant Staphylococcus aureus 4591/A assessed as reduction in microbial growth incubated for 24 hrs by microdilution assay; type: functional; settings: not given

First: CCCCC/C=C\CCCOP(=O)(CCN(CCCN)CCCN)OCCCOP(=O)(CCN(CCCN)CCCN)OCCC/C=C\CCCCC.Cl.Cl.Cl.Cl.Cl.Cl (stereo unspecified)
Second: Cl.Cl.Cl.Cl.Cl.Cl.NCCCN(CCCN)CCP(=O)(OCCCCCCCCCCCCOP(=O)(CCN(CCCN)CCCN)OCCc1ccccc1)OCCc1ccccc1 (stereo unspecified)
The MIC of the first is 4-fold lower: 1 µg/mL for the first, 4 µg/mL for the second.

test system: Pseudomonas aeruginosa; assay: Antibacterial activity against Pseudomonas aeruginosa ATCC 27853 = CCM 3955 assessed as inhibition of bacterial growth incubated for 24 hrs by microdilution assay; type: functional; settings: not given

Going from `CCCCC/C=C\CCCOP(=O)(CCN(CCCN)CCCN)OCCCOP(=O)(CCN(CCCN)CCCN)OCCC/C=C\CCCCC.Cl.Cl.Cl.Cl.Cl.Cl` (stereo unspecified) to `Cl.Cl.Cl.Cl.Cl.Cl.NCCCN(CCCN)CCP(=O)(OCCCCCCCCCCCCOP(=O)(CCN(CCCN)CCCN)OCCc1ccccc1)OCCc1ccccc1` (stereo unspecified), the MIC rises from 2 µg/mL to 8 µg/mL (4-fold).
